“Also recorded” adds a separate entry of the source.
Legend:
[1] = test system: Ih in large DRG neurons; experiment: Whole cell patch clamp of Ih in dissociated large L5 DRG neurons of SNL and control rats; type: cell-based, rat; settings: Cs+ 3 mM extracellular; ZD7288 50 μM
Description: Methods: Rats were prepared according to the above SNL model (L5 ligation). Sham rats were prepared identically, but without resection of the transverse process to avoid nerve trauma, and without nerve ligation. After 7 days, rats were killed by cervical dislocation and the ipsilateral L4 (no ligation) and L5 DRGs were quickly excised with fine forceps under a stereomicroscope and placed in ice cold Tyrode's containing pen/strep antibiotics.
Dissociation and culture of DRG neurons: DRGs from the L5 level of SNL, sham ligated and naive rats, and the L4 level of SNL rats were removed and maintained in ice-cold Tyrode's solution (140 mM NaCl, 4 mM KCl, 2 mM CaCl2, 1.3 mM MgCl2, 10 mM D-glucose, 10 mM HEPES, pH adjusted to 7.4 with NaOH) with additional 2 mM Ca^+2 (Tyrode's) prior to dissociation. […]
Current and voltage signals were detected and filtered at 2 kHz with an Axopatch 1D patch-clamp amplifier (Axon Instruments, Foster City, Calif.), digitally recorded with a DigiData 1200B laboratory interface (Axon Instruments), and PC compatible computer system and stored on magnetic disk for off-line analysis. […]

[2] = target: T1, human HCN3 (Homo sapiens, UniProt Q9P1Z3); experiment: Whole cell patch clamp of HEK293 cells stably expressing human HCN3; type: cell-based; settings: for reversibility of HCN3 current block: ZD7288: washout of at least 15 min
T1 construct: expressed in transfected cells; host or cells: HEK293 cells stably transfected with hHCN3-pcDNA3.1 Zeo
T1 sequence (Q9P1Z3 1-774): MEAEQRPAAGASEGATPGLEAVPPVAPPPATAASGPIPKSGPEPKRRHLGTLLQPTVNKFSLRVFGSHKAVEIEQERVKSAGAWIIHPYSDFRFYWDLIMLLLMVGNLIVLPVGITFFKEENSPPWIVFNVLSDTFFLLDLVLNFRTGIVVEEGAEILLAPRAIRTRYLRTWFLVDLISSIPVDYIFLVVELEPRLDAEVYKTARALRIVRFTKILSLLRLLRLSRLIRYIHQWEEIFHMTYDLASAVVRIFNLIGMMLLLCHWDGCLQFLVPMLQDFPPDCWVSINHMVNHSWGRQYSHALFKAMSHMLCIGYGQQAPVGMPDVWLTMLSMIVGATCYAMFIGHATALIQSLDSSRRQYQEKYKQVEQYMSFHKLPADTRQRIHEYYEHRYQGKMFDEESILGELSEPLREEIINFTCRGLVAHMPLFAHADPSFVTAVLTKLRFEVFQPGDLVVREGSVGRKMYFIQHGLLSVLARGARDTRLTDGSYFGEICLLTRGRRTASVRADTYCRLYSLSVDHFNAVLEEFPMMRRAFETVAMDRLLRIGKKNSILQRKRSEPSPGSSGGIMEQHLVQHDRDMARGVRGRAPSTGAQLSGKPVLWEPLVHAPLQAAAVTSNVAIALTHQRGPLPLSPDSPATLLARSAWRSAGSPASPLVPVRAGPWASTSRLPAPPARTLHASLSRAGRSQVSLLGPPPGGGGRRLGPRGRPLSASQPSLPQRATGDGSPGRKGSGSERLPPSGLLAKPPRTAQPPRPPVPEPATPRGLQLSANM

[3] = test system: spontaneous firing of Aβ and Aδ neurons; experiment: In vitro single fiber recording of spontaneous discharges in excised dorsal root/DRG/spinal nerve preparation from SNL rats; type: cell-based, rat
[4] = test system: normal rats; experiment: 55° C. hot plate test of acute thermally-evoked pain; type: in vivo, rat; settings: 10 mg/kg i.p.
Description: A cutoff of 20 seconds of thermal surface exposure was employed to prevent tissue damage. Drug administration: Normal rats were administered ZD7288, 10 mg/kg, or an equivalent volume of saline, i.p. at time 0. Behavioral assessments were performed at 45, 60 and 75 minutes after drug administration.

[5] = test system: rat carrageenan model of hindpaw inflammation; experiment: Thermal hyperalgesia (modified Hargreaves apparatus) in rat carrageenan model of hindpaw inflammation; type: in vivo; settings: 10 mg/kg i.p.
Description: However, blockade of HCN channels with ZD7288 at 10 mg/kg, i.p., had no effect on thermal hyperalgesia (measured using a modified Hargreaves apparatus) in two different models of inflammatory pain: the rat carrageenan model of hindpaw inflammation, and the rat complete Freund's adjuvant (CFA) model of hindpaw inflammation. As shown supra, HCN blockade also had little effect on acute thermally evoked pain in the hot plate test.

[6] = test system: rat mild thermal injury model; experiment: Spontaneous pain behaviors in rat mild thermal injury (first-degree burn) model; type: in vivo; settings: 30 and 60 min after i.p. administration

Row | Structure (SMILES) | block of Ih in large DRG neurons [1] | block of HCN3 hyperpolarization-induced inward currents ([2]; 3 mM CsCl) | reversibility of HCN3 current block [2] | block of HCN3 hyperpolarization-induced currents ([2]; 50 μM, n=3) | suppression of spontaneous (ectopic) discharges of Aβ fibers ([3]; 100 μM bath application for 5 min) | effect on spontaneous firing of Aδ fiber ([3]; 100 micromolar) | time to complete suppression of ectopic firing, Aβ fiber ([3]; 100 micromolar) | conduction blockade of evoked action potentials ([3]; after application of ZD7288) | effect on acute thermally-evoked pain [4] | hot plate latency, difference versus saline ([4]; 45 or 60 min) | hot plate latency, difference versus saline ([4]; 75 min) | effect on thermal hyperalgesia [5] | suppression of spontaneous pain behaviors [6]
1 | [Cl-].[Cs+] [Cs^+, CsCl] | efficacious block | completely blocked | rapidly reversible |  |  |  |  |  |  |  |  |  | 
2 | CCN(c1ccccc1)c1cc(=NC)n(C)c(C)n1.Cl [ZD7288] | efficacious block |  | did not reverse | 98+/−2% | complete suppression; also recorded: completely suppressed | attenuation of firing | 3 to 4 min | no conduction blockade | minimal effect | No statistically significant difference | approximately 15% | no effect | near complete suppression

Source: patent publication US20030022812A1, “Treating pain by targeting hyperpolarization-activated, cyclic nucleotide-gated channels” (priority 2001, published 2003)
